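Dose response: 5 concentrations. Exposure: 48 h. Format: 96-well plates. Endpoint: linear interpolation; highest concentration if not reached. TGI is the concentration that stops growth completely.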
Key:
Test in all cases: DTP human tumour cell line panel, 48 h
SR leukemia = test system: SR leukemia
UO-31 renal = test system: UO-31 renal
A498 renal = test system: A498 renal
HCC-2998 colon = test system: HCC-2998 colon
MDA-N = test system: MDA-N
MALME-3M melanoma = test system: MALME-3M melanoma
EKVX NSCLC = test system: EKVX NSCLC
TK-10 renal = test system: TK-10 renal
SK-OV-3 ovarian = test system: SK-OV-3 ovarian
K-562 leukemia = test system: K-562 leukemia
CCRF-CEM leukemia = test system: CCRF-CEM leukemia

Compound | TGI (SR leukemia) [µM] | TGI (UO-31 renal) [µM] | TGI (A498 renal) [µM] | TGI (HCC-2998 colon) [µM] | TGI (MDA-N) [µM] | TGI (MALME-3M melanoma) [µM] | TGI (EKVX NSCLC) [µM] | TGI (TK-10 renal) [µM] | TGI (SK-OV-3 ovarian) [µM] | TGI (K-562 leukemia) [µM] | TGI (CCRF-CEM leukemia) [µM]
C1=Cc2cc3c(c4nccc(c24)N1)OCO3 | 5.78 | > 48.8 | > 85.1 | 28.6 | 24.2 | 26 | 34 | > 80.1 | 55.9 | 98.9 | > 100
O=C1c2ccccc2C(=O)N1CCCCNOCCCN1C(=O)c2ccccc2C1=O | > 100 | > 100 | > 100 | > 100 | > 100 | > 100 | > 100 | > 100 | > 100 | > 100 | > 100
O=C1c2ccsc2C(=O)c2sc(CO)cc21 | > 10.8 | 0.317 | 0.792 | 5.33 | < 0.0177 | 1.21 | 2.39 | 10.1 | 2.97 | 2.48 | 1.35
Nc1nc(-[n+]2ccc(-c3ccncc3)cc2)nc(Cl)c1Cl | 41 | > 100 | > 100 | > 100 | > 100 | > 100 | > 100 | 59 | > 100 | 91.7 | 31.8
CC(CC[C@@]1(C)C(=O)CCC2O[C@]21C)[C@H]1C[C@@H](c2ccoc2)OC1=O (some centres not stated) | > 100 | 35.2 | > 100 | > 100 | > 100 | 81.3 | > 100 | 94.4 | > 100 | 51 | 61.3
CCOC(=O)C1C(=O)CC1(C)C (configuration not stated) | > 10 | > 10 | > 10 | > 10 | > 10 | > 10 | > 10 | > 10 | > 10 | > 10 | > 10
COC1=C(OC)C(=O)C(Cc2c(C)nc3sccn23)=C(C)C1=O | 38.9 | 29.1 | 38.3 | 40.3 | 26 | 31 | 29 | 32 | 26.8 | 39.8 | 23.8

Reference: PubChem BioAssay (NCI)
